Results as given in patent US4119710A, “Bronchospasmolytic 1-(p-amino-phenyl)-2-amino-ethanols-(1) and salts” (Boehringer Ingelheim GmbH, priority 1972, dated 1978).
Structures can show the parent of a compound that is named as a salt. Where two headings read alike, the source gives them in different places.

Key:
β1 -receptors = target: T1, β1 -receptors (Felis catus, UniProt Q9TST6); assay: β1-blocking activity: antagonism to tachycardia provoked by N-isopropyl-noradrenalin sulfate in anesthetized cats; type: in vivo; conditions: cat, iv
T1 construct: tested on anesthetized cats; from tissue; host or cells: living anesthetized cat, heart (heart rate)
Protocol: (§1) The compounds of this invention were tested for toxicity and with regard to their action on the β-receptors in warm-blooded animals, such as cats and guinea pigs, by the methods described below, and the following test results were obtained for representative species of the genus, where
The β1 -blocking activity was tested on anesthetized cats as antagonism to tachycardia provoked by a standard dose of 1.0 γ/kg i.v. of N-isopropyl-noradrenalin sulfate. From the average percentage reduction in heart rate acceleration caused by N-isopropyl-noradrenalin sulfate, obtained by various doses of the test compound in question, a median effective dose (ED50) was determined by graphic extrapolation (see Tables II and III).

[1] = acute toxicity in mice (LD50, Litchfield and Wilcoxon); conditions: mouse, in vivo, iv, groups of 10, i.v.
Protocol: as §1
The acute toxicity of the compounds was determined on groups of 10 mice.

β2 -receptors [2] = target: T2, β2 -receptors (Cavia porcellus, UniProt Q8K4Z4); assay: β2-mimetic activity: antagonism to acetylcholine bronchospasm in anesthetized guinea pigs (Konzett-Rossler); type: in vivo; conditions: for ED50: guinea pig, iv, bronchospasm by 20 γ/kg acetylcholine i.v., test compound i.v., graphic extrapolation (Table I); for Duration of activity (β2 -mimetic activity): i.v. (Table I)
T2 construct: tested on anesthetized guinea pigs; from tissue; host or cells: living anesthetized guinea pig, airways (Konzett-Rossler)
Protocol: as §1
The β2 -mimetic activity was tested on anesthetized guinea pigs as antagonism to bronchospasm provoked by intravenous administration of 20 γ of acetylcholine per kg body weight (according to the method of Konzett-Rossler) by intravenous administration of the test compound. From the average percentage decrease of the bronchospasm produced by various doses of the test compound, a median effective dose (ED50) was determined by graphic extrapolation (see Table I).

β2 -receptors [3] = target: T2, β2 -receptors; assay: β2-blocking activity: antagonism to broncholytic activity of N-isopropyl-noradrenalin sulfate in anesthetized guinea pigs (Konzett-Rossler); type: in vivo; conditions: guinea pig, iv, d(+)-isomers, 5 γ/kg i.v. N-isopropyl-noradrenalin sulfate after 20 γ/kg i.v. acetylcholine (Table III), read-out: Blocking Action on β2 -receptors ED50
Protocol: as §1
The β2 -blocking activity was tested on anesthetized guinea pigs as antagonism to the broncholytic activity which is observed upon administration of 5 γ/kg body weight i.v. of N-isopropyl-noradrenalin sulfate in the test arrangement according to Konzett-Rossler, following the inducement of a bronchospasm caused by a standard dose of 20 γ/kg body weight i.v. of acetylcholine (see Table III).

[4] = tachycardia by 1.0 γ/kg i.v. N-isopropyl-noradrenalin sulfate, graphic extrapolation (Table II), read-out: Blocking action on the β1 -receptors ED50
[5] = deaths within 14 days (Table II), read-out: LD50
[6] = d(+)-isomers, tachycardia by 1.0 γ/kg i.v. N-isopropyl-noradrenalin sulfate (Table III), read-out: Blocking Action on β1 -receptors ED50
[7] = deaths within 14 days, d(+)-isomers (Table III), read-out: acute toxicity LD50 (Table III)

T1 sequence (Q9TST6 whole entry): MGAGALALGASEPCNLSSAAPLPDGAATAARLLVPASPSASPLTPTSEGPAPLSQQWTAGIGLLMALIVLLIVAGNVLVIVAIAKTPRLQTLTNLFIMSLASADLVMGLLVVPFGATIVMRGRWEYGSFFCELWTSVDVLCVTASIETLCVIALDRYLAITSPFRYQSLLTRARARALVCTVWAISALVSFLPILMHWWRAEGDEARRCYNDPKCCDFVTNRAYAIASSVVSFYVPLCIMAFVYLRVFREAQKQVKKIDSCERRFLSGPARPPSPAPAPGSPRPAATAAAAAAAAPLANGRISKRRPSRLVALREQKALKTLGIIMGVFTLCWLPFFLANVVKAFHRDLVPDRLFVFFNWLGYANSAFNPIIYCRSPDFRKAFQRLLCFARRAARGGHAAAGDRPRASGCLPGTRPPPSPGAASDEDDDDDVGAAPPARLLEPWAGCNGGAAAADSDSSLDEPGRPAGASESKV
T2 sequence (Q8K4Z4 whole entry): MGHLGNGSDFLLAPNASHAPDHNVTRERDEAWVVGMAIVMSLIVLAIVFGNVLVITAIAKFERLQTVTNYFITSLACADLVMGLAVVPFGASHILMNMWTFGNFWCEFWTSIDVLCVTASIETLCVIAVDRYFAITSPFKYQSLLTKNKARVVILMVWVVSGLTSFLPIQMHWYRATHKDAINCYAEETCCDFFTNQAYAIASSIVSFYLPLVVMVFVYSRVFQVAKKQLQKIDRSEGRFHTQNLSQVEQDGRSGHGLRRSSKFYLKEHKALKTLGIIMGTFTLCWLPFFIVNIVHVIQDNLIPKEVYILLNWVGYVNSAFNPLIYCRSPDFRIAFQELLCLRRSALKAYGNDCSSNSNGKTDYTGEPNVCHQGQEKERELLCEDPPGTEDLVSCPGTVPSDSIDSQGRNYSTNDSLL

SMILES | ED50 (β1 -receptors; [4]) | LD50 at 336 h [1, 5] | ED50 (β2 -receptors [2]) | Duration of activity (β2 -mimetic activity) (β2 -receptors [2]) | ED50 (β1 -receptors; [6]) | LD50 at 336 h [1, 7] | ED50 (β2 -receptors [3])
Cl.Nc1c(F)cc(C(O)CNC2CCC2)cc1Br (stereo not shown) [K, 1-(4'-amino-3'-bromo-5'-fluoro-phenyl)-2-cyclobutylamino-ethanol hydrochloride] | 0.0015 mg/kg | 26.4 mg/kg | 0.058 mg/kg | > 50 min |  |  | 
CCC(C)NCC(O)c1cc(Cl)c(N)c(C#N)c1.Cl (stereo not shown) [R, 1-(4'-amino-3'-chloro-5'-cyano-phenyl)-2-sec.butylamino-ethanol hydrochloride] | 0.00032 mg/kg | 40.4 mg/kg | 0.0057 mg/kg | > 80 min |  |  | 
CCCNCC(O)c1cc(Cl)c(N)c(C#N)c1.Cl (stereo not shown) [Q, 1-(4'-amino-3'-chloro-5'-cyano-phenyl)-2-propylamino-ethanol hydrochloride] | 0.00076 mg/kg | 53.4 mg/kg | 0.027 mg/kg | 50 min |  |  | 
Br.N#Cc1cc(C(O)CNC2CCC2)ccc1N (stereo not shown) [O, 1-(4'-amino-3'-cyano-phenyl)-2-cyclobutylamino-ethanol hydrobromide] |  | 61.8 mg/kg | 0.0069 mg/kg | 40 min |  |  | 
CC(C)(C)NCC(O)c1cc(Cl)c(N)c(C(F)(F)F)c1 (single isomer, unassigned) [G-d(+), d-1-(4'-Amino-3'-chloro-5'-trifluoromethyl-phenyl)-2-tert.butylamino-ethanol] |  |  |  |  | 0.0125 mg/kg | 33.2 mg/kg | > 2 mg/kg
CCC(C)(C)NCC(O)c1ccc(N)c(C#N)c1 (stereo not shown) [P, 1-(4'-amino-3'-cyano-phenyl)-2-tert.pentylamino-ethanol] |  | 62 mg/kg | 0.0036 mg/kg | 65 min |  |  | 
CC(C)NCC(O)c1cc(F)c(N)c(C#N)c1.Cl (stereo not shown) [M, 1-(4'-amino-3'-fluoro-5'-cyano-phenyl)-2-isopropylamino-ethanol hydrochloride] | 0.00027 mg/kg | 66.4 mg/kg |  | > 40 min |  |  | 
CC(C)(C)NCC(O)c1cc(Br)c(N)c([N+](=O)[O-])c1 (stereo not shown) [Y, 1-(4'-amino-3'-bromo-5'-nitro-phenyl)-2-tert.butylamino-ethanol] | 0.0028 mg/kg | 35.8 mg/kg |  |  |  |  | 
CC(C)(C)NCC(O)c1ccc(N)c(F)c1 (single isomer, unassigned) [E-d(+), d-1-(4'-amino-3'-fluoro-phenyl)-2-tert.butylamino-ethanol hydrochloride] |  |  |  |  | 0.0015 mg/kg |  | > 2 mg/kg
CC(C)(C)NCC(O)c1cc(F)c(N)c(Cl)c1.Cl (stereo not shown) [D, 1-(4'-amino-3'-chloro-5'-fluoro-phenyl)-2-tert.butylamino-ethanol hydrochloride] | 0.008 mg/kg | 35.1 mg/kg | 0.019 mg/kg | > 120 min |  |  | 
CC(C)(C)NCC(O)c1ccc(N)c(F)c1.Cl (stereo not shown) [E, 1-(4'-amino-3'-fluoro-phenyl)-2-tert.butylamino-ethanol hydrochloride] | 0.0135 mg/kg | 69.2 mg/kg | 0.018 mg/kg | > 80 min |  |  | 
Nc1c(Cl)cc(C(O)CNC2CCC2)cc1C(F)(F)F (stereo not shown) [H, 1-(4'-amino-3'-chloro-5'-trifluoromethyl-phenyl)-2-cyclobutylamino-ethanolhydrochloride] |  | 36.3 mg/kg | 0.0068 mg/kg | > 125 min |  |  | 
Br.CCC(C)(C)NCC(O)c1ccc(N)c(C(F)(F)F)c1 (stereo not shown) [F, 1-(4'-amino-3'-trifluoromethyl-phenyl)-2-tert.pentylamino-ethanol hydrobromide] | 0.035 mg/kg |  |  |  |  |  | 
CC(C)(C)NCC(O)c1cc(F)c(N)c(C#N)c1.Cl (stereo not shown) [N, 1-(4'-amino-3'-fluoro-5'-cyano-phenyl)-2-tert.butylamino-ethanol hydrochloride] |  | 58.4 mg/kg | 0.00032 mg/kg | > 40 min |  |  | 
CC(Cc1ccc2c(c1)OCO2)NCC(O)c1cc(Cl)c(N)c(C#N)c1 (stereo not shown) [V, 1-(4'-amino-3'-chloro-5'-cyano-phenyl)-2-[1"-(3,4-methylenedioxy-phenyl)-2"-propylamino]-ethanol hydrochloride] | 0.0014 mg/kg | 13.5 mg/kg | 0.0027 mg/kg | > 65 min |  |  | 
CC(C)(C)NCC(O)c1cc(Br)c(N)c(C#N)c1.Cl (stereo not shown) [J, 1-(4'-amino-3'-bromo-5'-cyano-phenyl)-2-tert.butylamino-ethanol hydrochloride] |  | 67 mg/kg | 0.0048 mg/kg | > 40 min |  |  | 
CC(C)(C)NCC(O)c1cc(Cl)c(N)c(C(F)(F)F)c1 (stereo not shown) [G, 1-(4'-amino-3'-chloro-5'-trifluoromethyl-phenyl)-2-tert.butylamino-ethanolhydrochloride] | 0.0115 mg/kg | 36.5 mg/kg | 0.0195 mg/kg | > 130 min |  |  | 
CC(C)(C)NCC(O)c1cc(Cl)c(N)c([N+](=O)[O-])c1 (stereo not shown) [Z, 1-(4'-amino-3'-chloro-5'-nitro-phenyl)-2-tert.butylamino-ethanol] | 0.0045 mg/kg | 42.4 mg/kg | 0.0315 mg/kg | > 80 min |  |  | 
CC(C)(C)NCC(O)c1cc(C#N)c(N)c(C#N)c1.Cl (stereo not shown) [X, 1-(4'-amino-3',5'-dicyano-phenyl)-2-tert.butylamino-ethanol hydrochloride] | 0.00092 mg/kg | 166 mg/kg | 0.0113 mg/kg | > 65 min |  |  | 
Cl.Nc1c(F)cc(C(O)CNC2CC2)cc1Cl (stereo not shown) [C, 1-(4'-amino-3'-chloro-5'-fluoro-phenyl)-2-cyclopropylamino-ethanol hydrochloride] | 0.014 mg/kg | 57 mg/kg | 0.024 mg/kg | > 50 min |  |  | 
CCC(C)(C)NCC(O)c1cc(Cl)c(N)c(C#N)c1.Cl (stereo not shown) [T, 1-(4'-amino-3'-chloro-5'-cyano-phenyl)-2-tert.pentylamino-ethanol hydrochloride] | 0.00045 mg/kg | 33.7 mg/kg | 0.0019 mg/kg | > 40 min |  |  | 
CC(C)(C)NCC(O)c1cc(Cl)c(N)c(C#N)c1 (stereo not shown) [I, 1-(4'-amino-3'-chloro-5'-cyano-phenyl)-2-tert.butylamino-ethanol] | 0.00074 mg/kg | 60 mg/kg | 0.0002 mg/kg | > 95 min |  |  | 
CC(C)(C)NCC(O)c1cc(F)c(N)c(Br)c1.Cl (stereo not shown) [A, 1-(4'-amino-3'-bromo-5'-fluoro-phenyl)-2-tert.butylamino-ethanol hydrochloride] | 0.0185 mg/kg | 34.5 mg/kg | 0.0083 mg/kg | > 150 min |  |  | 
CC(C)(C)NCC(O)c1cc(F)c(N)c(Cl)c1 (single isomer, unassigned) [D-d(+), d-1-(4'-Amino-3'-chloro-5'-fluoro-phenyl)-2-tert.butylamino-ethanol] |  |  |  |  | 0.0062 mg/kg | 34.2 mg/kg | > 2 mg/kg
Cl.Nc1c(F)cc(C(O)CNC2CC2)cc1I (stereo not shown) [L, 1-(4'-amino-3'-fluoro-5'-iodo-phenyl)-2-cyclopropylamino-ethanol hydrochloride] | 0.0013 mg/kg | 45.2 mg/kg |  |  |  |  | 
Cl.N#Cc1cc(C(O)CNC2CCC2)cc(Br)c1N (stereo not shown) [W, 1-(4'-amino-3'-bromo-5'-cyano-phenyl)-2-cyclobutylamino-ethanol hydrochloride] |  | 38.5 mg/kg | 0.0205 mg/kg | > 50 min |  |  | 
Cl.N#Cc1cc(C(O)CNC2CCCC2)cc(Cl)c1N (stereo not shown) [U, 1-(4'-amino-3'-chloro-5'-cyano-phenyl)-2-cyclopentylamino-ethanol hydrochloride] | 0.0007 mg/kg | 39.1 mg/kg | 0.0098 mg/kg | > 50 min |  |  | 
CC(C)(CO)NCC(O)c1cc(Cl)c(N)c(C#N)c1 (stereo not shown) [S, 1-(4'-amino-3'-chloro-5'-cyano-phenyl)-2-(hydroxy-tert.butylamino)-ethanolhydrochloride] | 0.00076 mg/kg | 81.8 mg/kg | 0.01 mg/kg | > 65 min |  |  | 
CC(C)(C)N1COC(c2cc(F)c(N)c(Br)c2)C1.Cl.Cl (stereo not shown) [B, 5-(4'-amino-3'-bromo-5'-fluoro-phenyl)-3-tert.butyloxazolidine dihydrochloride] |  | 27.2 mg/kg | 0.0067 mg/kg | > 110 min |  |  | 
